Source: patent US20050038077A1, “Tablet containing 3-[(2-{[4-(hexyloxycarbonylamino-imino-methyl)-phenylamino]-methyl}-1-methyl-1H- benzimidazol-5-carbonyl)-pyridin-2-yl-amino]-propionic acid ethylester or the salts thereof” (Boehringer Ingelheim International GmbH, priority 2003, published 2005)

Assay: first clinical trials, oral administration, plasma levels
Assay type: in vivo
[1] = conventional tablets containing the compound of formula (I), first clinical trials

variability of the plasma level patterns (administered as an oral solution, compared with conventional tablets): significantly lower | malabsorption [1]: individual cases of malabsorption | variability of plasma levels [1]: highly variable plasma levels
SMILES: CCCCCCOC(=O)NC(=N)c1ccc(NCc2nc3cc(C(=O)N(CCC(=O)OCC)c4ccccn4)ccc3n2C)cc1 [compound of formula (I), ethyl 3-[(2-{[4-(hexyloxycarbonylaminoiminomethyl)phenylamino]methyl}-1-methyl-1H-benzimidazole-5-carbonyl)pyridin-2-ylamino]propionate]
malabsorption (administered as an oral solution): no instances of malabsorption have been observed
